Assay in all cases: Ray2010 Assay 74
Assay [1] has as its target 5-hydroxytryptamine receptor 1D (Homo sapiens, UniProt P28221). The text has this:
(§1) Table S2 shows raw Ki data for the current study combined with data collected from the literature for the ten additional compounds.

Assay [2] concerns the target 5-hydroxytryptamine receptor 1E (Homo sapiens, UniProt P28566).
From the text: as §1

In assay [3] the target is T1, 5-hydroxytryptamine receptor 3A (Homo sapiens, UniProt P46098).
T1 sequence (P46098 whole entry): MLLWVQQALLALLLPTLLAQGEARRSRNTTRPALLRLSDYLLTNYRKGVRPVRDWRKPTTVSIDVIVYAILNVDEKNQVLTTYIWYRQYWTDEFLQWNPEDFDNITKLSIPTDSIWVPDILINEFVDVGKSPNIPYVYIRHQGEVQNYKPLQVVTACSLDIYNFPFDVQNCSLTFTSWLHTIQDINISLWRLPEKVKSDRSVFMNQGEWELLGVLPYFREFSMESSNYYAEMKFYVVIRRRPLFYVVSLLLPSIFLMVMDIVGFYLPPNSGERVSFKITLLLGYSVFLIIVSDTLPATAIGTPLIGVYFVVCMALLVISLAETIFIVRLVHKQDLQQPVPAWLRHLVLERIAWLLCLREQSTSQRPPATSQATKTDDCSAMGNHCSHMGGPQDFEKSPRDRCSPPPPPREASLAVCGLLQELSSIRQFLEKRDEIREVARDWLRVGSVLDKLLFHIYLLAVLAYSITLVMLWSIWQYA
From the text: as §1

Assay [4] addresses 5-hydroxytryptamine receptor 6 (Homo sapiens, UniProt P50406).
From the text: as §1

Assay [5] addresses Beta-1 adrenergic receptor (Homo sapiens, UniProt P08588).
From the text: as §1

Assay [6] has as its target D(1A) dopamine receptor (Homo sapiens, UniProt P21728).
From the text: as §1

Assay [7] concerns the target D(1B) dopamine receptor (Homo sapiens, UniProt P21918).
From the text: as §1

Assay [8] has as its target T2, D(4) dopamine receptor (Homo sapiens, UniProt P21917).
T2 sequence (P21917 whole entry): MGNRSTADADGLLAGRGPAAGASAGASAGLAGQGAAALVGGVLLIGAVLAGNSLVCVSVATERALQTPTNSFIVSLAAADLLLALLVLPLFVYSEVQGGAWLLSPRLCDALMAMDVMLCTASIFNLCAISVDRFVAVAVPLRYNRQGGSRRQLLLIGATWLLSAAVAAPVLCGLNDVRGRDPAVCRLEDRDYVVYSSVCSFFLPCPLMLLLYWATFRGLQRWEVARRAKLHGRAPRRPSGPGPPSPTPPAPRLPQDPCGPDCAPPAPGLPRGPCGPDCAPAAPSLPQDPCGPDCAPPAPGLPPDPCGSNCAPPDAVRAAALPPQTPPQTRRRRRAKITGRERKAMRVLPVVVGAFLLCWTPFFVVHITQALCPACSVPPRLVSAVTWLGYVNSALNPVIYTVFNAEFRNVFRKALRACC
From the text: as §1

In assay [9] the target is T3, Gamma-aminobutyric acid receptor subunit alpha-1 (Homo sapiens, UniProt P14867).
T3 sequence (P14867 whole entry): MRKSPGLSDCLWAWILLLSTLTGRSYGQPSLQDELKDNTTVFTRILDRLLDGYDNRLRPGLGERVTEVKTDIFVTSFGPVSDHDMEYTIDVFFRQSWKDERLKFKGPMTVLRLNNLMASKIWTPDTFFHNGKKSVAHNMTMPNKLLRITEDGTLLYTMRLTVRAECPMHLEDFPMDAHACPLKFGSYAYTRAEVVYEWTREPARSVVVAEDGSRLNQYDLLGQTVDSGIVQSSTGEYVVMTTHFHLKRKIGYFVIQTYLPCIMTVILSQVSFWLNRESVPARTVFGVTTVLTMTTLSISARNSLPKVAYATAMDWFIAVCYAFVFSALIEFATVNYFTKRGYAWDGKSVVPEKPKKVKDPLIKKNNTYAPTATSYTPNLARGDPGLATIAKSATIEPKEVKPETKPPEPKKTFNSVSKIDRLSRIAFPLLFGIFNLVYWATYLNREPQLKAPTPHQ
From the text: as §1

Assay [10] has as its target Histamine H2 receptor (Homo sapiens, UniProt P25021).
From the text: as §1

Assay [11] deals with Histamine H4 receptor (Homo sapiens, UniProt Q9H3N8).
Histamine H4 receptor, sequence (Q9H3N8 whole entry): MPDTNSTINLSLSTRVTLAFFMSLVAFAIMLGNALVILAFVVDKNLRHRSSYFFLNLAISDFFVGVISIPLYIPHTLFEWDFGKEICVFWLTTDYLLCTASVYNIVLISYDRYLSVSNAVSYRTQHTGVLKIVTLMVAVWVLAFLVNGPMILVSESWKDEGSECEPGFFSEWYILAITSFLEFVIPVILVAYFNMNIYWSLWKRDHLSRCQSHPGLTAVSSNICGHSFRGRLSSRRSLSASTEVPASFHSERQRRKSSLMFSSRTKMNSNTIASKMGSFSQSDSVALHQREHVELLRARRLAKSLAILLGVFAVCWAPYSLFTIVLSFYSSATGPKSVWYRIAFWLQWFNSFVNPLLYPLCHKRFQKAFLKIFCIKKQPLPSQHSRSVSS
From the text: as §1

For assay [12], the target named is Kappa-type opioid receptor (Homo sapiens, UniProt P41145).
Kappa-type opioid receptor, sequence (P41145 whole entry): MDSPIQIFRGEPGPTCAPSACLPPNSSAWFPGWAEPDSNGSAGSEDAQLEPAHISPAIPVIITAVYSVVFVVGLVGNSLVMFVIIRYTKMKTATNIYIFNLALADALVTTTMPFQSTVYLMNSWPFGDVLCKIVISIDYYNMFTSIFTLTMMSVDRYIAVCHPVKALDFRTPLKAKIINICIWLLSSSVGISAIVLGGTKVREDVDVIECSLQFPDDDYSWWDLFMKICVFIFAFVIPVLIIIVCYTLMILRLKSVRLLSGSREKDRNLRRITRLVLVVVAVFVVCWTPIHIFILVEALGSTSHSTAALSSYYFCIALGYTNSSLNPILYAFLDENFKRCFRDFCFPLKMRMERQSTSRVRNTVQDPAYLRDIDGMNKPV
From the text: as §1

For assay [13], the target named is T4, Muscarinic acetylcholine receptor M2 (Homo sapiens, UniProt P08172).
T4 sequence (P08172 whole entry): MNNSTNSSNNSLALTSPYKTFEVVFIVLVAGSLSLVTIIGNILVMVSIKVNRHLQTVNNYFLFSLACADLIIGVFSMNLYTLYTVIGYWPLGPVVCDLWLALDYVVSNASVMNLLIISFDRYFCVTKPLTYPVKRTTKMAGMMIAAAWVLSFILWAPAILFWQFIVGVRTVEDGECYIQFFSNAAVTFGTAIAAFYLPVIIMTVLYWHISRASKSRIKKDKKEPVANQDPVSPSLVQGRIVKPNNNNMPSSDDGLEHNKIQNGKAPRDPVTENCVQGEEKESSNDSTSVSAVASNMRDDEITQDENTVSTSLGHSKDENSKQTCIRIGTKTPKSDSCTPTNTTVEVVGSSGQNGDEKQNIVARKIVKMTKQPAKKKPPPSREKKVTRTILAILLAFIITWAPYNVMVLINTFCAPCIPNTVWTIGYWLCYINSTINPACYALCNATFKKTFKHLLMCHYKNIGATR
From the text: as §1

For assay [14], the target named is Sodium-dependent dopamine transporter (Homo sapiens, UniProt Q01959).
Sodium-dependent dopamine transporter, sequence (Q01959 whole entry): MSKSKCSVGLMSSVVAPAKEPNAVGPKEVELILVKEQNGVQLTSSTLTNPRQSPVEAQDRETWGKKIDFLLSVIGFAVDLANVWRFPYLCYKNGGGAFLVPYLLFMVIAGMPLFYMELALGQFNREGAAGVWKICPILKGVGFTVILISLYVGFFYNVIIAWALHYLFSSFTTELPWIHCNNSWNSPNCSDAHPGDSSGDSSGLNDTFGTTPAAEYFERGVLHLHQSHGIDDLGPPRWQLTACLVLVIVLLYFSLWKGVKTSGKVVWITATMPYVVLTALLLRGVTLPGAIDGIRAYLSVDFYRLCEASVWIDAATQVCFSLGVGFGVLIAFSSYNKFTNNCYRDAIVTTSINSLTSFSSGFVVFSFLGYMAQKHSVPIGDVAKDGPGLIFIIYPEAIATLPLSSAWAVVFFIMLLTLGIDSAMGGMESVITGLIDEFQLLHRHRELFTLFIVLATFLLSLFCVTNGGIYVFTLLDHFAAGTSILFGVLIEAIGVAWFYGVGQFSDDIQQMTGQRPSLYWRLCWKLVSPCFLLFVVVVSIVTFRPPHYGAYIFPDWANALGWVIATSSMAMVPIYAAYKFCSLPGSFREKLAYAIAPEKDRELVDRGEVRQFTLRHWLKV
From the text: as §1

Assay [15] concerns the target Sodium-dependent noradrenaline transporter (Homo sapiens, UniProt P23975).
From the text: as §1

Assay [16] deals with Sodium-dependent serotonin transporter (Homo sapiens, UniProt P31645).
Sodium-dependent serotonin transporter, sequence (P31645 whole entry): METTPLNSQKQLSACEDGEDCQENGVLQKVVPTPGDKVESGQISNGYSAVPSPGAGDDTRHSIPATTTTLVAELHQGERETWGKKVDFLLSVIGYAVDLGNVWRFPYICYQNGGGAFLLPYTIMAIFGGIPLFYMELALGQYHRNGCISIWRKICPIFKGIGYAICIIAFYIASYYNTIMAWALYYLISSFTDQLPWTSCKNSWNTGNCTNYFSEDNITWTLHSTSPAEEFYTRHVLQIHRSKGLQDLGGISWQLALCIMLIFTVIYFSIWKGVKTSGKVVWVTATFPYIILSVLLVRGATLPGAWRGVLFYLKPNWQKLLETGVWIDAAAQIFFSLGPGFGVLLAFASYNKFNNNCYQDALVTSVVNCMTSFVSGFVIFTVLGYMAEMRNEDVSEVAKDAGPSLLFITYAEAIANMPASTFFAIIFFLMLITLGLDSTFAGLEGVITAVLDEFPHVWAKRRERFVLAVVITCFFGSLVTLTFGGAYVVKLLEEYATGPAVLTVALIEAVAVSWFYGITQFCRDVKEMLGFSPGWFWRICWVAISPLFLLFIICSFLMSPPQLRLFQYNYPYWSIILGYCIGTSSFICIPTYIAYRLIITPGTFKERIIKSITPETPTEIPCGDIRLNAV
From the text: as §1

In assay [17] the target is Delta-type opioid receptor (Homo sapiens, UniProt P41143).
Delta-type opioid receptor, sequence (P41143 whole entry): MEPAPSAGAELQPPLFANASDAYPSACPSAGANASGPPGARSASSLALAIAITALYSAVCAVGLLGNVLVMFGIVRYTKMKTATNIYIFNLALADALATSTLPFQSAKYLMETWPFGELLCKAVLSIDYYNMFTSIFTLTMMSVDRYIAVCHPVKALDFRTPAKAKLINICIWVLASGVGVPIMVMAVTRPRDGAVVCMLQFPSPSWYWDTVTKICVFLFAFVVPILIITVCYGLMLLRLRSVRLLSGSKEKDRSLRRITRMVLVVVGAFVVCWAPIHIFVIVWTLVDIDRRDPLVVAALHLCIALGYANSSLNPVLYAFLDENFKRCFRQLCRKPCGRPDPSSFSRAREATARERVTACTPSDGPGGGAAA
From the text: as §1

Assay [18] addresses Glutamate receptor ionotropic, NMDA 2A (Homo sapiens, UniProt Q12879).
From the text: as §1

For assay [19], the target named is Mu-type opioid receptor (Homo sapiens, UniProt P35372).
From the text: as §1

D(1B) dopamine receptor, sequence (P21918 whole entry): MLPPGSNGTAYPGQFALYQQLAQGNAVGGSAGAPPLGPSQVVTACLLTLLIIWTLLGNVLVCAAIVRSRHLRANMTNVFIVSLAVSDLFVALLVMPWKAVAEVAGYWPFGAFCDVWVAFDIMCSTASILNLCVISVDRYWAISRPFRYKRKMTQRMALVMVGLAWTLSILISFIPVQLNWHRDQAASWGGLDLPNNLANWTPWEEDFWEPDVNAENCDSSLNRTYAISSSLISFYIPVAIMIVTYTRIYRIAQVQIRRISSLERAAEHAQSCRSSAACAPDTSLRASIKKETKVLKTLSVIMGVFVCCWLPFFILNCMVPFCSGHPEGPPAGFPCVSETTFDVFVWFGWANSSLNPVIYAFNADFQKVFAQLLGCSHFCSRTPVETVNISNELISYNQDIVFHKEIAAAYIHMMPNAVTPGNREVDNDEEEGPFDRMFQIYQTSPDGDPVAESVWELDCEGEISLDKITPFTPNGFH
5-hydroxytryptamine receptor 6, sequence (P50406 whole entry): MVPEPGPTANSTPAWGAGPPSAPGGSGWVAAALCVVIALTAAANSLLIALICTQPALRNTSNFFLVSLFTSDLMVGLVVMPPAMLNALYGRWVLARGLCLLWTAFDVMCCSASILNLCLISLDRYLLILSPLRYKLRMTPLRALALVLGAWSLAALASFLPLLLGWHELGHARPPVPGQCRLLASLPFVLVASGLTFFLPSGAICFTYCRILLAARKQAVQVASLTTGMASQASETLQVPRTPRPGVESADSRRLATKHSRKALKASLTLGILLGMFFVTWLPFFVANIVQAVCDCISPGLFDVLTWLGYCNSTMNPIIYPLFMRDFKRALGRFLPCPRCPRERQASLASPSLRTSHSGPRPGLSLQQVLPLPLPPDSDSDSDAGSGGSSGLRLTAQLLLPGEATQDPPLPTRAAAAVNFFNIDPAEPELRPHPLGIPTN
5-hydroxytryptamine receptor 1D, sequence (P28221 whole entry): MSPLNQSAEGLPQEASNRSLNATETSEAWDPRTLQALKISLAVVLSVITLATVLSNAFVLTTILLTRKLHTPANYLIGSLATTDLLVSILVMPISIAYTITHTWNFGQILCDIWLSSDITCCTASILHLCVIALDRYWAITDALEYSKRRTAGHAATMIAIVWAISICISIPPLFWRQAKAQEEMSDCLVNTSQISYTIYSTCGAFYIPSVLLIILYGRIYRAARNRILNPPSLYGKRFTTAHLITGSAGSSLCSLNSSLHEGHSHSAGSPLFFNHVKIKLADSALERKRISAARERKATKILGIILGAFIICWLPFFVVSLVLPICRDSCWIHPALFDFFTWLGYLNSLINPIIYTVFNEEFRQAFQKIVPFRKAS
D(1A) dopamine receptor, sequence (P21728 whole entry): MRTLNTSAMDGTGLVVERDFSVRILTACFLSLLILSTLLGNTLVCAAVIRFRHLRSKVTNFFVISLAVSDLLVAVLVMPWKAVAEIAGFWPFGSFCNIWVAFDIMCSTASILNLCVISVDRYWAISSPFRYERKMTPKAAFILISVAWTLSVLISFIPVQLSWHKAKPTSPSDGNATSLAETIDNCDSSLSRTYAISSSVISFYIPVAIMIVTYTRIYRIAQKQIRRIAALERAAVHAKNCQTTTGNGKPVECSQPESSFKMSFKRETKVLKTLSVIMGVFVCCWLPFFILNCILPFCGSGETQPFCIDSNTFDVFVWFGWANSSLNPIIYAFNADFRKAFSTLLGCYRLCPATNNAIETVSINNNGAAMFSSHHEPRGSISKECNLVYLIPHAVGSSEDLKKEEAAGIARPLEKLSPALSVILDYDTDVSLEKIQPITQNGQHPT
5-hydroxytryptamine receptor 1E, sequence (P28566 whole entry): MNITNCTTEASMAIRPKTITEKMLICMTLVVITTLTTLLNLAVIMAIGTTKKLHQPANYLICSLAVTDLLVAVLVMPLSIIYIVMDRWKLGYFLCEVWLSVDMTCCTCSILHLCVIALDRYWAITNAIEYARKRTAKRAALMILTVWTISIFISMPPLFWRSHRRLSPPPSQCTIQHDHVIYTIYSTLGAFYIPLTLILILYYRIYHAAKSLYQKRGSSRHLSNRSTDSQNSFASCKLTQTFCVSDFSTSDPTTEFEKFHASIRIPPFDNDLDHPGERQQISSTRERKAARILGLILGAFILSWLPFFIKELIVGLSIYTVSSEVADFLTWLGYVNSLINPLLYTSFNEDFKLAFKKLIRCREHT
Histamine H2 receptor, sequence (P25021 whole entry): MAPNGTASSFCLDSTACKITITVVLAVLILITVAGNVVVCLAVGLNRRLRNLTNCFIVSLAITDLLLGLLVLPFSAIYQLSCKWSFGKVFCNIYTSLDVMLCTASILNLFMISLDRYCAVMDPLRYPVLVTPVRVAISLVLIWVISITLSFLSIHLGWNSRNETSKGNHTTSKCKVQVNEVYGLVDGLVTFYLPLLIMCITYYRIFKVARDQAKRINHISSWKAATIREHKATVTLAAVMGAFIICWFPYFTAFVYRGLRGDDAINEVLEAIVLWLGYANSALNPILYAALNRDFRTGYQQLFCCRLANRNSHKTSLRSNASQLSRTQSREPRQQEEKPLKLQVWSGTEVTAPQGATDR

`CC(N)Cc1ccc2c(c1)OCO2` (stereo unspecified): the Ki in assay [1] is > 10000 nM; in [2], > 10000 nM; in assay [3], > 10 µM; in [4] it was > 10000 nM; in [5] it was > 10 µM; in assay [6] it was > 10000 nM. Further, the Ki in [7], in assay [8], in [9], in assay [10], in assay [11] and in assay [12] was > 10 µM in each case. For the same compound, the Ki in [13], in assay [14], in assay [15] and in [16] was > 10 µM throughout.

For the compound `C[C@@H]1C[C@H](C)N1C(=O)C1C=C2c3cccc4[nH]cc(c34)C[C@H]2N(C)C1` (stereo partly drawn) [cis-2a], the Ki was 195 nM in assay [2]; > 10 µM in assay [3]; 12.9 nM in assay [4]; 232 nM in [6]; > 10 µM in [17]; > 10 µM in [9]. The Ki in assay [18], in assay [12], in assay [19], in assay [14], in assay [15] and in assay [16] was > 10 µM in each case.

Take `CN(C)CCc1c[nH]c2ccccc12` [2-(1H-indol-3-yl)-N,N-dimethylethanamine]: the Ki in [1] was 93 nM; in assay [2], 456 nM; in [3], > 10 µM; in assay [4], 487 nM; in assay [5], > 10 µM; in assay [7], > 10 µM. Also, the Ki in assay [8], in [9], in [10], in assay [11], in [12] and in assay [13] was > 10 µM in each case. Also, the Ki in assay [14] was > 10 µM; in assay [15], > 10 µM; in assay [16] it was 3.74 µM.

For the compound `COc1cc(OC)c(OC)cc1CC(C)N` (stereo not drawn) [(+/-)1-Methyl-2-(2,4,5-trimethoxy-phenyl)-ethylamine], the Ki in assay [1] was > 10000 nM; in [2] it was > 10000 nM; in assay [3] it was > 10 µM; in assay [4], > 10000 nM; in [5] it was > 10 µM; in assay [6], > 10000 nM. Moreover, the Ki in [7], in [8], in assay [10], in assay [11], in assay [13] and in [14] was > 10 µM each time. Moreover, the Ki in assay [15] and in assay [16] was > 10 µM in each case.

Turning to `COC(=O)[C@@H]1C[C@H](OC(C)=O)C(=O)[C@H]2[C@@]1(C)CC[C@H]1C(=O)O[C@H](c3ccoc3)C[C@]21C` [2S,4aR,6a(R,7R,9S,10aS,10bR)-9-(acetyloxy)-2-(furan-3-yl)dodecahydro-6a,10b-dimethyl-4,10-dioxo-2H-naphtho[2,1-c]pyran-7-carboxylic acid methyl ester], the Ki in assay [1] is > 10000 nM; in [2] it was > 10000 nM; in assay [4], > 10000 nM; in [5] it was > 10 µM; in [6], > 10000 nM; in assay [7], > 10 µM. For the same compound, the Ki in assay [8], in assay [13], in [14] and in assay [16] was > 10 µM each time.

For `C[C@@H]1C[C@@H](C)N1C(=O)C1C=C2c3cccc4[nH]cc(c34)C[C@H]2N(C)C1` (stereo partly specified) [rr-2b], the Ki in [1] was 18 nM; in assay [2], 138 nM; in [3] it was > 10 µM; in [4] it was 60.5 nM; in assay [6], 342 nM; in assay [17], > 10 µM. Also, the Ki in [9], in assay [18], in [12], in assay [19], in [14] and in [15] was > 10 µM throughout. Further, the Ki in assay [16] was > 10 µM.

For the compound `CC[C@H]1C[C@@H]2C[C@H]3c4[nH]c5ccc(OC)cc5c4CCN(C2)[C@@H]13`, the Ki in assay [1] is > 10000 nM; in [3] it was > 10 µM; in assay [5], > 10 µM; in assay [6], > 10000 nM; in assay [8] it was > 10 µM; in assay [17], > 10 µM. The Ki in assay [9] was > 10 µM; in assay [18], 2 µM; in assay [19] it was 4.36 µM; in assay [13], 39.4 µM; in assay [14], 1.98 µM.

As to `CNC(C)Cc1ccc2c(c1)OCO2` (stereo unspecified) [mdma], the Ki was > 10000 nM in [1]; > 10000 nM in [2]; > 10 µM in assay [3]; > 10000 nM in assay [4]; > 10 µM in [5]; > 10000 nM in [6]. The Ki in [7], in assay [8], in assay [9], in assay [18], in assay [10] and in assay [12] was > 10 µM in each case. For the same compound, the Ki in [19], in assay [13], in [14], in assay [15] and in [16] was > 10 µM each time.

Consider `CCN(CC)C(=O)[C@@H]1C=C2c3cccc4[nH]cc(c34)C[C@H]2N(C)C1` [[N-methyl-3H]LSD], for which the Ki in assay [1] was 7.8 nM; in assay [3], > 10 µM; in assay [6], 177 nM; in assay [8], 0.158 µM; in assay [17] it was > 10 µM; in assay [9], > 10 µM. The Ki in [18], in assay [12], in [19], in assay [14], in assay [15] and in assay [16] was > 10 µM each time.

`COc1ccc2[nH]cc(CCN(C)C)c2c1` [3-(2-DIMETHYLAMINOETHYL)-5-METHOXYINDOLE]: the inhibitory constant (Ki) was > 10 µM in assay [5]; 79.5 nM in assay [6]; > 10 µM in [7]; 3.12 µM in assay [8]; > 10 µM in assay [9]; > 10 µM in [10]. Besides, the Ki in assay [12] was > 10 µM; in [13], > 10 µM; in assay [14], > 10 µM; in assay [15] it was 2.86 µM; in assay [16] it was 2.03 µM.

Broadly, the Ki is a measure of affinity in units of concentration, obtained from inhibition or displacement. A high value points to a looser hold on the target.

The values above are taken from BindingDB's records for PubMed 20126400 (University of Oklahoma, 2010).
